According to publication PMC12209990, “Effect of Cytochrome P450 3A Inhibition and Induction by Itraconazole and Rifampin on Tazemetostat Pharmacokinetics in Patients With Advanced Malignancies” (Clinical Pharmacology in Drug Development, 2025):
Like-named read-outs stand apart in the source and are kept apart here. Marks after values point to notes of the source that are not given here.

How the values were obtained:
[1] = Phase I DDI study Part 1: tazemetostat plasma PK alone and with itraconazole (noncompartmental analysis); format: in vivo, human; settings: for RacAUC (AUC0‐12h accumulation ratio), geoLSM (90% CI) / RacCmax (Cmax accumulation ratio), geoLSM (90% CI): tazemetostat 400 mg alone, Day 15 versus Day 1; for AUC / AUC(0-t) / Cmax / half-life / Tmax: human; for Tmax: read-out: tmax, median (range)
Excerpt: This was a Phase I, multicenter, open‐label, 2‐part study encompassing a fixed‐sequence design that aimed to characterize the PK of tazemetostat when administered as single and twice‐daily oral doses alone or in combination with either itraconazole (Part 1) or rifampin (Part 2). Secondary objectives were to evaluate the safety profile of tazemetostat when coadministered with either itraconazole (Part 1) or rifampin (Part 2).
Part 1 of the study evaluated the DDI between tazemetostat and itraconazole. On the mornings of Days 1 and 15, patients received a single dose of tazemetostat 400 mg orally. On Days 3‐14, patients received tazemetostat 400 mg twice daily (morning and evening). On Days 18‐20, patients received itraconazole 200 mg orally once daily in the morning. On Days 21‐35, tazemetostat 400 mg twice daily was coadministered in the morning with a single dose of itraconazole 200 mg. On Day 36, patients received a single dose of tazemetostat 400 mg coadministered in the morning with a single dose of itraconazole 200 mg. On Days 37 and 38, patients received a single dose of itraconazole 200 mg (Figure 1A). Throughout Part 1, administration of itraconazole occurred 1 hour after a meal.
In Part 1, plasma concentrations of tazemetostat following tazemetostat dosing on Days 1, 15, 21, and 36 were quantified for PK analyses before dosing (0 hour), and at 0.5, 1, 1.5, 2, 4, 6, 8, 12, 24 (Days 21‐22), 36, 48 (Days 1‐3), and up to 72 hours after dosing (Days 15‐18 and Days 36‐39).
Plasma concentrations of tazemetostat, over the ranges of 1.00‐2000 ng/mL, were quantified by a fully validated liquid chromatography with tandem mass spectrometric detection analytical method. Samples that had no detectable peak or had the calculated concentration <1.00 ng/mL were reported as below the lower limit of quantification. Tazemetostat analysis consisted of protein precipitation extraction and separation using mobile phases of 100 mM ammonium formate/water (1:9 v/v) (mobile phase A) and 100 mM ammonium formate/acetonitrile (1:9 v/v) (mobile phase B). Detection was achieved using an API‐5500 mass spectrometer (AB Sciex) using electrospray ionization (positive‐ion mode) in the multiple reaction monitoring mode. The multiple reaction monitoring mode m/z transitions monitored were […] for tazemetostat and the dwell time was set at 300 milliseconds.
Plasma concentration‐time data for tazemetostat were analyzed by noncompartmental analysis using the validated software program Phoenix WinNonlin Professional Version 8.3 (Certara Inc., Mountain View, CA).

[2] = parameters: method as in PMID 29473431, PMID 38520556, PMID 33492746; settings: doses of 200‐1600 mg twice daily; cited from earlier work
[3] = Part 1, single dose with itraconazole vs alone, Day 21 versus Day 1
[4] = Part 1, single dose with itraconazole vs alone, Day 21 versus Day 1, listed as tazemetostat
[5] = Part 1, steady state with itraconazole vs alone, Day 36 versus Day 15
[6] = Part 1, steady state with itraconazole vs alone, Day 36 versus Day 15, listed as tazemetostat
[7] = single doses, Day 21/Day 1, compared with tazemetostat alone
[8] = twice‐daily dosing, steady state, Day 36/Day 15

Which “AUC0‐12h ratio, geoLSM (90% CI)” value [1, 3] does the source give for `CCN(c1cc(-c2ccc(CN3CCOCC3)cc2)cc(C(=O)NCc2c(C)cc(C)[nH]c2=O)c1C)C1CCOCC1` [Tazemetostat] here?
Its value is 3.12 (2.44‐3.99) ^b.

What about the “Cmax ratio, geoLSM (90% CI)” value [1, 3] of the same compound?
The value was 2.00 (1.60‐2.48) ^b.

What about the “AUC0‐12h ratio, geoLSM (90% CI)” value [1, 4] of the same compound?
Its value is 3.12.

What about the “Cmax ratio, geoLSM (90% CI)” value [1, 4] of the same compound?
Its value is 2.00.

What about the “AUC0‐12h ratio, geoLSM (90% CI)” value [1, 5] of the same compound?
Its value is 2.47 (2.02‐3.02) ^c.

And the “Cmax ratio, geoLSM (90% CI)” value [1, 5]?
Its value is 1.86 (1.49‐2.31) ^c.

And the “AUC0‐12h ratio, geoLSM (90% CI)” value [1, 6]?
Its value is 2.47.

And the “Cmax ratio, geoLSM (90% CI)” value [1, 6]?
Its value is 1.86.

What about the “RacAUC (AUC0‐12h accumulation ratio), geoLSM (90% CI)” value ([1]; Part 1) of the same compound?
The value was 0.842 (0.726‐0.976) ^e.

And the “RacCmax (Cmax accumulation ratio), geoLSM (90% CI)” value ([1]; Part 1)?
Its value is 0.771 (0.662‐0.897) ^e.

What about the “RacAUC (AUC0‐12h accumulation ratio), geoLSM (90% CI)” value ([1]; Part 1, listed as tazemetostat) of the same compound?
The value was 0.842.

And the “RacCmax (Cmax accumulation ratio), geoLSM (90% CI)” value ([1]; Part 1, listed as tazemetostat)?
The value was 0.771.

And the “AUC0‐12 h, GeoMean (CV%)” value ([1]; Part 1, tazemetostat 400 mg multiple dosing with itraconazole 200 mg once daily, Day 36, plasma)?
The value was 4530 (64.5) ng•h/mL.

What about the “t1/2, GeoMean (CV%)” value ([1]; Part 1, tazemetostat 400 mg single dose with itraconazole 200 mg once daily, Day 21, plasma, estimated over a 12‐hour dosing interval) of the same compound?
The value was 2.86 (28.9) ^a hour.

What about the AUC ([1]; plasma, oral, 400 mg, Part 1, tazemetostat 400 mg twice daily alone, multiple dosing, Day 15, plasma, read-out: AUC0‐12 h, GeoMean (CV%)) of the same compound?
The AUC was 1830 ng·h/mL.

What about the AUC ([1]; plasma, oral, 400 mg, Part 1, tazemetostat 400 mg twice daily alone, multiple dosing, Day 15, plasma, read-out: AUC0‐12 h, mean (SD)) of the same compound?
The AUC was 1960 ng·h/mL.

And the AUC(0-t) ([1]; plasma, oral, 400 mg, Part 1, tazemetostat 400 mg twice daily alone, multiple dosing, Day 15, plasma, read-out: AUClast, GeoMean (CV%))?
Its AUC(0-t) is 2200 ng·h/mL.

What about the AUC(0-t) ([1]; plasma, oral, 400 mg, Part 1, tazemetostat 400 mg twice daily alone, multiple dosing, Day 15, plasma, read-out: AUClast, mean (SD)) of the same compound?
The AUC(0-t) was 2340 ng·h/mL.

What about the Cmax ([1]; plasma, oral, 400 mg, Part 1, tazemetostat 400 mg twice daily alone, multiple dosing, Day 15, plasma, read-out: Cmax, GeoMean (CV%)) of the same compound?
Its Cmax is 543 ng/mL.

What about the Cmax ([1]; plasma, oral, 400 mg, Part 1, tazemetostat 400 mg twice daily alone, multiple dosing, Day 15, plasma, read-out: Cmax, mean (SD)) of the same compound?
The Cmax was 643 ng/mL.

And the half-life ([1]; plasma, oral, 400 mg, Part 1, tazemetostat 400 mg twice daily alone, multiple dosing, Day 15, plasma, read-out: t1/2, GeoMean (CV%) (converted))?
Its half-life is 8.01 h.

What about the half-life ([1]; plasma, oral, 400 mg, Part 1, tazemetostat 400 mg twice daily alone, multiple dosing, Day 15, plasma, read-out: t1/2, mean (SD) (converted)) of the same compound?
Its half-life is 8.62 h.

And the Tmax ([1]; plasma, oral, 400 mg, Part 1, tazemetostat 400 mg twice daily alone, multiple dosing, Day 15, plasma)?
The Tmax was 1.27 h.

And the AUC ([1]; plasma, oral, Part 1, tazemetostat 400 mg multiple dosing with itraconazole 200 mg once daily, Day 36, plasma, read-out: AUC0‐12 h, mean (SD))?
Its AUC is 5160 ng·h/mL.

What about the AUC(0-t) ([1]; plasma, oral, Part 1, tazemetostat 400 mg multiple dosing with itraconazole 200 mg once daily, Day 36, plasma, read-out: AUClast, GeoMean (CV%)) of the same compound?
The AUC(0-t) was 5750 ng·h/mL.

And the AUC(0-t) ([1]; plasma, oral, Part 1, tazemetostat 400 mg multiple dosing with itraconazole 200 mg once daily, Day 36, plasma, read-out: AUClast, mean (SD))?
Its AUC(0-t) is 6490 ng·h/mL.

And the Cmax ([1]; plasma, oral, Part 1, tazemetostat 400 mg multiple dosing with itraconazole 200 mg once daily, Day 36, plasma, read-out: Cmax, GeoMean (CV%))?
Its Cmax is 1010 ng/mL.

And the Cmax ([1]; plasma, oral, Part 1, tazemetostat 400 mg multiple dosing with itraconazole 200 mg once daily, Day 36, plasma, read-out: Cmax, mean (SD))?
Its Cmax is 1190 ng/mL.

And the half-life ([1]; plasma, oral, Part 1, tazemetostat 400 mg multiple dosing with itraconazole 200 mg once daily, Day 36, plasma, read-out: t1/2, GeoMean (CV%) (converted))?
The half-life was 11.9 h.

And the half-life ([1]; plasma, oral, Part 1, tazemetostat 400 mg multiple dosing with itraconazole 200 mg once daily, Day 36, plasma, read-out: t1/2, mean (SD) (converted))?
Its half-life is 12.9 h.

And the Tmax ([1]; plasma, oral, Part 1, tazemetostat 400 mg multiple dosing with itraconazole 200 mg once daily, Day 36, plasma)?
Its Tmax is 1.49 h.

What about the half-life ([1]; plasma, oral, Part 1, tazemetostat 400 mg single dose with itraconazole 200 mg once daily, Day 21, plasma, estimated over a 12‐hour dosing interval, read-out: t1/2, mean (SD) (converted)) of the same compound?
Its half-life is 2.95 h.

What about the AUC ([1]; plasma, oral, Part 1, tazemetostat 400 mg single dose with itraconazole 200 mg once daily, Day 21, plasma, read-out: AUC0‐12 h, GeoMean (CV%)) of the same compound?
The AUC was 6790 ng·h/mL.

What about the AUC ([1]; plasma, oral, Part 1, tazemetostat 400 mg single dose with itraconazole 200 mg once daily, Day 21, plasma, read-out: AUC0‐12 h, mean (SD)) of the same compound?
Its AUC is 8000 ng·h/mL.

What about the AUC(0-t) ([1]; plasma, oral, Part 1, tazemetostat 400 mg single dose with itraconazole 200 mg once daily, Day 21, plasma, read-out: AUClast, GeoMean (CV%)) of the same compound?
Its AUC(0-t) is 6720 ng·h/mL.

And the AUC(0-t) ([1]; plasma, oral, Part 1, tazemetostat 400 mg single dose with itraconazole 200 mg once daily, Day 21, plasma, read-out: AUClast, mean (SD))?
Its AUC(0-t) is 7930 ng·h/mL.

And the Cmax ([1]; plasma, oral, Part 1, tazemetostat 400 mg single dose with itraconazole 200 mg once daily, Day 21, plasma, read-out: Cmax, GeoMean (CV%))?
The Cmax was 1400 ng/mL.

And the Cmax ([1]; plasma, oral, Part 1, tazemetostat 400 mg single dose with itraconazole 200 mg once daily, Day 21, plasma, read-out: Cmax, mean (SD))?
Its Cmax is 1640 ng/mL.

What about the Tmax ([1]; plasma, oral, Part 1, tazemetostat 400 mg single dose with itraconazole 200 mg once daily, Day 21, plasma) of the same compound?
Its Tmax is 1.53 h.

And the AUC ([1]; plasma, po, 400 mg, Part 1, tazemetostat 400 mg oral single dose alone, Day 1, plasma, read-out: AUC0‐12 h, GeoMean (CV%))?
The AUC was 2180 ng·h/mL.

And the AUC ([1]; plasma, po, 400 mg, Part 1, tazemetostat 400 mg oral single dose alone, Day 1, plasma, read-out: AUC0‐12 h, mean (SD))?
The AUC was 2460 ng·h/mL.

What about the AUC(0-t) ([1]; plasma, po, 400 mg, Part 1, tazemetostat 400 mg oral single dose alone, Day 1, plasma, read-out: AUClast, GeoMean (CV%)) of the same compound?
The AUC(0-t) was 2640 ng·h/mL.

And the AUC(0-t) ([1]; plasma, po, 400 mg, Part 1, tazemetostat 400 mg oral single dose alone, Day 1, plasma, read-out: AUClast, mean (SD))?
Its AUC(0-t) is 3250 ng·h/mL.

What about the Cmax ([1]; plasma, po, 400 mg, Part 1, tazemetostat 400 mg oral single dose alone, Day 1, plasma, read-out: Cmax, GeoMean (CV%)) of the same compound?
The Cmax was 704 ng/mL.

And the Cmax ([1]; plasma, po, 400 mg, Part 1, tazemetostat 400 mg oral single dose alone, Day 1, plasma, read-out: Cmax, mean (SD))?
Its Cmax is 803 ng/mL.

What about the half-life ([1]; plasma, po, 400 mg, Part 1, tazemetostat 400 mg oral single dose alone, Day 1, plasma, read-out: t1/2, GeoMean (CV%) (converted)) of the same compound?
Its half-life is 5.97 h.

And the half-life ([1]; plasma, po, 400 mg, Part 1, tazemetostat 400 mg oral single dose alone, Day 1, plasma, read-out: t1/2, mean (SD) (converted))?
The half-life was 6.13 h.

What about the Tmax ([1]; plasma, po, 400 mg, Part 1, tazemetostat 400 mg oral single dose alone, Day 1, plasma) of the same compound?
Its Tmax is 1.44 h.

What about the “increase of tazemetostat exposure by itraconazole” value ([1]; overall, single dose and steady state) of the same compound?
The value was “two to three times”.

What about the “increase of mean AUC0‐12h by itraconazole” value [1, 7] of the same compound?
The value was 3.12 fold.

And the “increase of mean Cmax by itraconazole” value [1, 7]?
Its value is 2.00 fold.

What about the “increase of mean steady‐state AUC0‐12h by itraconazole” value [1, 8] of the same compound?
Its value is 2.47 fold.

And the “increase of mean steady‐state Cmax by itraconazole” value [1, 8]?
The value was 1.86 fold.

What about the “dose proportionality of systemic exposure” value [2] of the same compound?
The value was “approximately dose proportional”.
